Assay results from patent US20150352108A1, “AMINO-PYRIMIDINE COMPOUNDS AS INHIBITORS OF TBK1 AND/OR IKK EPSILON” (Alzheimer's Institute of America, priority 2009, published 2015).

Target: T1, IKKε (Homo sapiens, UniProt Q14164)
T1 construct: His-tag; made in house; host or cells: Sf9 insect cells
T1 sequence (Q14164 1-716): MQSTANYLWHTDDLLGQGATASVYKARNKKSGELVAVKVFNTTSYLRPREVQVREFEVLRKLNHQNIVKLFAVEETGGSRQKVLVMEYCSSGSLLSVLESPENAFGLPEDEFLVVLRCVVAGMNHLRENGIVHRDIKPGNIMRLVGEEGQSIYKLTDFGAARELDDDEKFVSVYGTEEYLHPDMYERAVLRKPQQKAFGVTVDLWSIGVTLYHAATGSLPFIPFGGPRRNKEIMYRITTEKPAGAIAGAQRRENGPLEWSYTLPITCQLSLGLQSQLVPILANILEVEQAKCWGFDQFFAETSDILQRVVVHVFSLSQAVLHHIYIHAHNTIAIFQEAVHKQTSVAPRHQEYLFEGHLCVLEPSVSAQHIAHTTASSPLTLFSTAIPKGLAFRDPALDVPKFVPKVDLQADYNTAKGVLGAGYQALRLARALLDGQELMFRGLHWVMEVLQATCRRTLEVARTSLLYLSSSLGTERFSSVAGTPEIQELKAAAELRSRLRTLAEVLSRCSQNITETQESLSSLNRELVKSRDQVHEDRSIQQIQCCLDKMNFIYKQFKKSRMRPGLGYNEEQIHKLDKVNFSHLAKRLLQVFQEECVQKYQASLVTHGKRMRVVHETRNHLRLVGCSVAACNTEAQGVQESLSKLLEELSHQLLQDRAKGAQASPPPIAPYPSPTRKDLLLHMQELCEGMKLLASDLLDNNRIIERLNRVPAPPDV
Assay: In-vitro IKKε kinase assay ([γ33]ATP filter-plate)
Format: biochemical
Settings: text bins; read-out: IC50 for inhibition of the kinase activity of IKKε
In short: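 His-tagged Sf9-expressed kinases at 0.1 or 0.02 μg/ml (TBK1) and 0.1 or 0.015 μg/ml (IKKε) for normal and sensitized formats, with myelin basic protein or casein substrate. ATP was at 2×Km (60 μM TBK1, 32 μM IKKε) plus 0.3 μCi [γ33]ATP. Reactions ran 30-45 min, were captured on P-81 filters, and counts were normalized to DMSO.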

| SMILES | IC50 [nM] |
| --- | --- |
| N#Cc1cc(-c2ccnc(Nc3ccc(N4CCOCC4)cc3)n2)ccc1OCC1CCN(C(=O)C2(N)CC2)CC1 [Example 42, 2-({1-[(1-aminocyclopropyl)carbonyl]piperidin-4-yl}methoxy)-5-(2-{[4-(morpholin-4-yl)phenyl]amino}pyrimidin-4-yl)benzonitrile] | 50 to 500 |
| CC(=O)NS(=O)(=O)c1ccc(Nc2nccc(-c3ccc(OC4CCOCC4)c(C#N)c3)n2)cc1 [compound 630] | < 5 |
| COc1ccc(-c2ccnc(Nc3cc(CN4CCC[C@H]4C(=O)N(C)C)c(OC)c(OC)c3)n2)cc1C#N [Example 245, 1-(5-{[4-(3-Cyano-4-methoxyphenyl)pyrimidin-2-yl]amino}-2,3-dimethoxybenzyl)-N,N-dimethylprolinamide] | 50 to 500 |
| CN(C)c1cccc(Nc2nccc(-c3cccc(C#N)c3)n2)c1 [compound 379, 3-(2-{[3-(Dimethylamino)phenyl]amino}pyrimidin-4-yl)benzonitrile] | 50 to 500 |
| CC(C)C(=O)Nc1ccc(-c2ccnc(Nc3ccc(CCO)cc3)n2)cc1C#N [compound 464, N-[2-cyano-4-(2-{[4-(2-hydroxyethyl)phenyl]amino}pyrimidin-4-yl)phenyl]-2-methylpropanamide] | 5 to 50 |
| N#Cc1cc(-c2ccnc(Nc3ccc(N4CCOCC4)cc3)n2)ccc1OC1CN(C=O)C1 [Example 101, 2-[(1-formylazetidin-3-yl)oxy]-5-(2-{[4-(morpholin-4-yl)phenyl]amino}pyrimidin-4-yl)benzonitrile] | 50 to 500 |
| COc1ccc(-c2ccnc(Nc3ccc(NC(=O)NCCO)cc3)n2)cc1C#N [Example 9, 1-(4-{[4-(3-Cyano-4-methoxyphenyl)pyrimidin-2-yl]amino}phenyl)-3-(2-hydroxyethyl)urea] | 50 to 500 |
| COc1ccc(Nc2nccc(-c3ccc(OCc4ccccc4)c(C#N)c3)n2)cc1OC [Example 106, 2-(Benzyloxy)-5-{2-[(3,4-dimethoxyphenyl)amino]pyrimidin-4-yl}benzonitrile] | 5 to 50 |
| CC(C)NC(=O)NCCOc1ccc(-c2ccnc(Nc3ccc(N4CCOCC4)cc3)n2)cc1C#N [Example 47, 1-{2-[2-cyano-4-(2-{[4-(morpholin-4-yl)phenyl]amino}pyrimidin-4-yl)phenoxy]ethyl}-3-propan-2-ylurea] | 5 to 50 |
| COc1ccc(-c2ccnc(Nc3cccc(NC(=O)NCCCO)c3)n2)cc1C#N [compound 310, 1-(3-{[4-(3-Cyano-4-methoxyphenyl)pyrimidin-2-yl]amino}phenyl)-3-(3-hydroxypropyl)urea] | 5 to 50 |
| N#Cc1cc(-c2ccnc(Nc3ccc(N4CCOCC4)cc3)n2)ccc1OC1CCN(C(=O)[C@@H](O)C(F)(F)F)CC1 [Example 113, 5-(2-{[4-(morpholin-4-yl)phenyl]amino}pyrimidin-4-yl)-2-({1-[(2R)-3,3,3-trifluoro-2-hydroxypropanoyl]piperidin-4-yl}oxy)benzonitrile] | 5 to 50 |
| COc1cc(NC(=O)CN(C)C)cc(Nc2nccc(-c3ccc(OC)c(C#N)c3)n2)c1 [compound 336, N-(3-{[4-(3-Cyano-4-methoxyphenyl)pyrimidin-2-yl]amino}-5-methoxyphenyl)-N~2~,N~2~- dimethylglycinamide] | 5 to 50 |
| COc1cc(NC(=O)c2ccncc2)cc(Nc2nccc(-c3ccc(OC)c(C#N)c3)n2)c1 [compound 357] | 50 to 500 |
| N#Cc1cc(-c2ccnc(Nc3ccc(N4CCOCC4)cc3)n2)ccc1OC1CN(CCO)C1 [compound 474, 2-{[1-(2-hydroxyethyl)azetidin-3-yl]oxy}-5-(2-{[4-(morpholin-4-yl)phenyl]amino}pyrimidin-4-yl)benzonitrile] | 50 to 500 |
| C[C@H](O)C(=O)NCCOc1ccc(-c2ccnc(Nc3ccc(N4CCOCC4)cc3)n2)cc1C#N [Example 250, (2S)-N-{2-[2-cyano-4-(2-{[4-(morpholin-4-yl)phenyl]amino}pyrimidin-4-yl)phenoxy]ethyl}-2-hydroxypropanamide] | 50 to 500 |
| CC(=O)N1CC(COc2ccc(-c3ccnc(Nc4ccc(N5CCOCC5)cc4)n3)cc2C#N)C1 [Example 125, 2-[(1-acetylazetidin-3-yl)methoxy]-5-(2-{[4-(morpholin-4-yl)phenyl]amino}pyrimidin-4-yl)benzonitrile] | 50 to 500 |
| COc1ccc(-c2ccnc(Nc3ccc(NC(=O)NCCCN)cc3)n2)cc1C#N [Example 10, 1-(3-Aminopropyl)-3-(4-{[4-(3-cyano-4-methoxyphenyl)pyrimidin-2-yl]amino}phenyl) urea] | 50 to 500 |

| SMILES | IC50 [nM] |
| --- | --- |
| COC1CN(C(C)c2ccc(Nc3nccc(-c4ccc(O[C@@H]5CCN(C(=O)CO)C5)c(C#N)c4)n3)cc2)C1 (stereo partly drawn) [compound 602] | 5 to 50 |
| COc1cc(Nc2nccc(-c3ccc(OC)c(C#N)c3)n2)ccc1C [compound 325, 2-Methoxy-5-{2-[(3-methoxy-4-methylphenyl)amino]pyrimidin-4-yl}benzonitrile] | 50 to 500 |
| N#Cc1cc(-c2ccnc(Nc3ccc(N4CCOCC4)cc3)n2)ccc1OCC1CNC1 [Example 39, 2-(azetidin-3-ylmethoxy)-5-(2-{[4-(morpholin-4-yl)phenyl]amino}pyrimidin-4-yl)benzonitrile] | 5 to 50 |
| N#Cc1cc(-c2ccnc(Nc3ccc(N4CCOCC4)cc3)n2)ccc1OC1CCN(C(=O)C2CC2)C1 (stereo not drawn) [Example 151, 2-{[1-(cyclopropylcarbonyl)pyrrolidin-3-yl]oxy}-5-(2-{[4-(morpholin-4-yl)phenyl]amino}pyrimidin-4-yl)benzonitrile] | 50 to 500 |
| CCC(C)(C)C(=O)Nc1ccc(-c2ccnc(Nc3ccc(N4CCOCC4)cc3)n2)cc1C#N [Example 77, N-[2-cyano-4-(2-{[4-(morpholin-4-yl)phenyl]amino}pyrimidin-4-yl)phenyl]-2,2-dimethylbutanamide] | 50 to 500 |
| N#Cc1cc(-c2ccnc(Nc3ccc(N4CCOCC4)cc3)n2)ccc1OCC1CN(C(=O)CO)C1 [Example 188, 2-{[1-(hydroxyacetyl)azetidin-3-yl]methoxy}-5-(2-{[4-(morpholin-4-yl)phenyl]amino}pyrimidin-4-yl)benzonitrile] | 5 to 50 |
| CO[C@@H](C)C(=O)N1CCC(Oc2ccc(-c3ccnc(Nc4ccc(N5CCOCC5)cc4)n3)cc2C#N)CC1 [Example 99] | 5 to 50 |
| COc1ccc(Nc2nccc(-c3ccc(Cl)c(C#N)c3)n2)cc1OC [Example 182, 2-Chloro-5-{2-[(3,4-dimethoxyphenyl)amino]pyrimidin-4-yl}benzonitrile] | 5 to 50 |
| N#Cc1cc(-c2ccnc(Nc3cccc(Cn4ccnn4)c3)n2)ccc1OC1CCOCC1 [compound 576, 2-(Tetrahydro-2H-pyran-4-yloxy)-5-(2-{[3-(1H-1,2,3-triazol-1-ylmethyl)phenyl]amino}pyrimidin-4-yl)benzonitrile] | < 5 |
| N#Cc1cc(-c2ccnc(Nc3ccc(N4CCOCC4)cc3)n2)ccc1OCCNC(=O)CCO [Example 95] | 50 to 500 |
| CS(=O)(=O)N(c1ccc(-c2ccnc(Nc3ccc(N4CCOCC4)cc3)n2)cc1C#N)S(C)(=O)=O [Example 167, N-[2-Cyano-4-(2-{[4-(morpholin-4-yl)phenyl]amino}pyrimidin-4-yl)phenyl]-N-(methylsulfonyl) methanesulfonamide] | 5 to 50 |
| N#Cc1cc(-c2ccnc(Nc3ccc(S(=O)(=O)Nc4nccs4)cc3)n2)ccc1OC1CCOCC1 [compound 575, 4-({4-[3-Cyano-4-(tetrahydro-2H-pyran-4-yloxy)phenyl]pyrimidin-2-yl}amino)-N-(1,3-thiazol-2-yl) benzenesulfonamide] | < 5 |
| N#Cc1cc(-c2ccnc(Nc3ccc(N4CCOCC4)cc3)n2)ccc1NC(=O)N1CCOCC1 [Example 52, N-[2-cyano-4-(2-{[4-(morpholin-4-yl)phenyl]amino}pyrimidin-4-yl)phenyl]morpholin-4-carboxamide] | 50 to 500 |
| COC(=O)C(C)(C)COc1ccc(-c2ccnc(Nc3ccc(N4CCOCC4)cc3)n2)cc1C#N [Example 84, methyl 3-[2-cyano-4-(2-{[4-(morpholin-4-yl)phenyl]amino}pyrimidin-4-yl)phenoxy]-2,2-dimethylpropanoate] | 50 to 500 |
| CN1CCN(C2CCN(c3ccc(-c4ccnc(Nc5ccc(N6CCOCC6)cc5)n4)cc3C#N)CC2)CC1 [Example 213, 2-[4-(4-Methylpiperazin-1-yl)piperidin-1-yl]-5-(2-{[4-(morpholin-4-yl)phenyl]amino}pyrimidin-4-yl)benzonitrile] | 50 to 500 |
| N#Cc1cc(-c2ccnc(Nc3ccc(N4CCOCC4)cc3)n2)ccc1NC(=O)NC1CCOCC1 [Example 92, 1-[2-cyano-4-(2-{[4-(morpholin-4-yl)phenyl]amino}pyrimidin-4-yl)phenyl]-3-(tetrahydro-2H-pyran-4-yl)urea] | 5 to 50 |
